For experiment [1], the target named is Kappa-type opioid receptor (Cavia porcellus, UniProt P41144). Briefly: Compound was evaluated for the inhibition of Opioid receptor kappa1 binding to guinea pig brain membranes, using 1 nM [3H]- U69,593 as radioligand.
The next experiment deals with Mu-type opioid receptor (Cavia porcellus, UniProt P97266). Kind of experiment: Compound was evaluated for the inhibition of Opioid receptor mu 1 binding to guinea pig brain membranes, using [3H]- DAMGO as radioligand.
Mu-type opioid receptor, sequence (P97266 whole entry): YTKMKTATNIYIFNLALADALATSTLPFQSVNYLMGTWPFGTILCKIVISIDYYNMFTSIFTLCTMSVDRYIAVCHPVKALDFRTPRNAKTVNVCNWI
Experiment [2] can be described thus: Specific binding was evaluated by Phycoerythrin fluorescent labeling of R1EGO mouse thymoma cells. The format is functional.
Experiment [3] in a line: Nonspecific binding was evaluated by Phycoerythrin fluorescent labeling of R1EGO mouse thymoma cells. The format is functional.
Experiment [4] can be described thus: Percent specific binding was evaluated by Phycoerythrin fluorescent labeling of R1EGO mouse thymoma cells. It counts as functional.
The nature of experiment [5]: Total binding was evaluated by Phycoerythrin fluorescent labeling of R1EGO mouse thymoma cells. The format is functional.

Kappa-type opioid receptor, sequence (P41144 whole entry): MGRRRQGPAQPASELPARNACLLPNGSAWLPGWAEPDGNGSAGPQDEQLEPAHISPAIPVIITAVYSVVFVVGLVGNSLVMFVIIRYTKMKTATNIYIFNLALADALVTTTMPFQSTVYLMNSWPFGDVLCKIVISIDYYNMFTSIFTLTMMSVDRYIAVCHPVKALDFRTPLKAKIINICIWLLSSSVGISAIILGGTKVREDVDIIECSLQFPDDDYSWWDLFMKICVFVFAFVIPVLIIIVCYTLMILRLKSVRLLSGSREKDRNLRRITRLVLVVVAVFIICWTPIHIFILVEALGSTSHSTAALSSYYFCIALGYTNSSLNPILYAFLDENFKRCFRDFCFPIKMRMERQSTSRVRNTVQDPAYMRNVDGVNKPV

In the case of `CN(C(=O)Cc1ccc(Cl)c(Cl)c1)C(CN1CCCC1)c1cccc(N/C(S)=N/c2ccc(-c3c4ccc(=O)cc-4oc4cc(O)ccc34)c(C(=O)O)c2)c1` (stereo unspecified), the Ki in experiment [1] was 8.2 nM; on Mu-type opioid receptor it was 176 nM.
In turn, `CN(C(=O)Cc1ccc(Cl)c(Cl)c1)[C@H](CN1CCCC1)c1cccc(N/C(S)=N/c2ccc(-c3c4ccc(=O)cc-4oc4cc(O)ccc34)c(C(=O)O)c2)c1` yielded a Specific binding in experiment [2] of 57. Also, the inhibition constant (Ki) in experiment [1] came out at 1.4 nM; at Mu-type opioid receptor, 98 nM. In addition, the Non-specific binding in experiment [3] is given as 7. The compound also registered a Binding in experiment [4] of 91%. The compound further displayed a Total binding in experiment [5] of 64.
On to `CN(C(=O)Cc1ccc(Cl)c(Cl)c1)[C@@H](CN1CCCC1)c1cccc(N/C(S)=N/c2ccc(-c3c4ccc(=O)cc-4oc4cc(O)ccc34)c(C(=O)O)c2)c1`, for which the Ki in experiment [1] was 139 nM; at Mu-type opioid receptor, 1190 nM. In addition, the Non-specific binding in experiment [3] is -5. In addition, the Total binding in experiment [5] came out at 12.
Regarding `CC(=O)Nc1cccc([C@H](CN2CCCC2)N(C)C(=O)Cc2ccc(Cl)c(Cl)c2)c1`, the Ki was 17.5 nM in experiment [1] and 1040 nM on Mu-type opioid receptor.
In the case of `CC(=O)Nc1cccc([C@@H](CN2CCCC2)N(C)C(=O)Cc2ccc(Cl)c(Cl)c2)c1`, the values for the Ki (in experiment [1]; on Mu-type opioid receptor) were 0.0855 nM and 8.37 nM, respectively.

As a reminder, the Ki is a dissociation constant, usually derived from enzyme kinetics or from competition with a known ligand. A lower Ki goes with tighter binding.

(Values after ChEMBL document CHEMBL1151564, “Arylacetamide kappa-selective opioid ligands” (Bioorg Med Chem Lett, 1997).)
